Experimental data published in ChEMBL document CHEMBL2311250 (Bioorg Med Chem Lett, 2013).
Converted amounts (≈) assume the structure as drawn.

Key:
[1] = Aqueous solubility of the compound at ph 6.5; type: physicochemical
[2] = Permeability of the compound by PAMPA; type: ADME; details: read-out: permeability
hERG (KCNH2) = hERG (KCNH2) (Homo sapiens, UniProt Q12809); assay: Displacement of [3H]dofetilide from human ERG at 10 uM; details: probe [3H]dofetilide
[3] = Half life in human liver microsomes; type: ADME, Microsome
[4] = target: T1, Tyrosine-protein kinase receptor TYRO3 (Homo sapiens, UniProt Q06418); assay: Inhibition of Sky (unknown origin) by ELISA kinase assay in presence of 60 uM ATP
T1 sequence (Q06418 whole entry): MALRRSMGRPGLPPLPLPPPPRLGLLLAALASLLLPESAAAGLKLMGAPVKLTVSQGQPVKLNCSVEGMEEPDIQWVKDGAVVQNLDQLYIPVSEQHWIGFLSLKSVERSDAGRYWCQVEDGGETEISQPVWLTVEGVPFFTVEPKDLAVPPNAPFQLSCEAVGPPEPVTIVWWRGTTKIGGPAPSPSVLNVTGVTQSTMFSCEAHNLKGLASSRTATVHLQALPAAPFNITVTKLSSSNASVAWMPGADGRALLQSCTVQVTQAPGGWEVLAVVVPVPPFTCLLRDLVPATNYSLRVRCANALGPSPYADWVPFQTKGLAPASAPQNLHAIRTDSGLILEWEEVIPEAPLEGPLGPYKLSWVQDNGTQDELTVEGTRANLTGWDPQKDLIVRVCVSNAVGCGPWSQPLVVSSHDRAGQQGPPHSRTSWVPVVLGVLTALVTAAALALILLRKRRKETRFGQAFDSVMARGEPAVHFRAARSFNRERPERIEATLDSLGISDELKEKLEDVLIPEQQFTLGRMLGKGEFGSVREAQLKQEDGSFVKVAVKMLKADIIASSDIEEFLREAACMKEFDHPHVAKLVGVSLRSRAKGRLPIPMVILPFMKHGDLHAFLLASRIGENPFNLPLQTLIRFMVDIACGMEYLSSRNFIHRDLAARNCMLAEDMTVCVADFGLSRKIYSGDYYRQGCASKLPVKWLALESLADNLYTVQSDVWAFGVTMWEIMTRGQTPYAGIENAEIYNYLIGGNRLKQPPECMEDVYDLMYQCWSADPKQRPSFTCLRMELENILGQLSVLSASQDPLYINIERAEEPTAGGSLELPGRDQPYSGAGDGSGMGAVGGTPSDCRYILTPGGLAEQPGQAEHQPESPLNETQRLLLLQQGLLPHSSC

[5] = Half life in rat liver microsomes; type: ADME, Microsome
Platelet = assay: Inhibition of platelet aggregation (unknown origin); type: functional, cell-based
[6] = target: Tyrosine-protein kinase Lck (Homo sapiens, UniProt P06239); assay: Inhibition of LCK (unknown origin) in presence of ATP
[7] = target: Tyrosine-protein kinase ABL1 (Homo sapiens, UniProt P00519); assay: Inhibition of ABL (unknown origin) in presence of ATP
[8] = Oral bioavailability in Sprague-Dawley rat at 5 mg/kg; type: ADME, organism-based; details: in vivo
[9] = Cmax in Sprague-Dawley rat at 1 mg/kg, iv and 5 mg/kg, po; type: ADME, organism-based; details: in vivo
[10] = AUC in Sprague-Dawley rat at 1 mg/kg, iv and 5 mg/kg, po; type: ADME, organism-based; details: plasma
[11] = Clearance in Sprague-Dawley rat at 1 mg/kg, iv and 5 mg/kg, po; type: ADME, organism-based; details: in vivo
[12] = Volume of distribution at steady state in Sprague-Dawley rat at 1 mg/kg, iv and 5 mg/kg, po; type: ADME, organism-based; details: in vivo, read-out: Vdss
[13] = Half life in Sprague-Dawley rat at 1 mg/kg, iv and 5 mg/kg, po; type: ADME, organism-based; details: in vivo
Insulin receptor = Insulin receptor (Homo sapiens, UniProt P06213); assay: Inhibition of INSR (unknown origin) in presence of ATP
[14] = target: Fibroblast growth factor receptor 1 (Homo sapiens, UniProt P11362); assay: Inhibition of FGFR1 (unknown origin) in presence of ATP
[15] = target: Casein kinase I isoform delta (Homo sapiens, UniProt P48730); assay: Inhibition of CK1-delta (unknown origin) in presence of ATP
[16] = target: RAC-alpha serine/threonine-protein kinase (Homo sapiens, UniProt P31749); assay: Inhibition of AKT1 (unknown origin) in presence of ATP
[17] = target: Dual specificity protein kinase CLK1 (Homo sapiens, UniProt P49759); assay: Inhibition of CLK1 (unknown origin) in presence of ATP
[18] = target: Calcium/calmodulin-dependent protein kinase type 1 (Homo sapiens, UniProt Q14012); assay: Inhibition of CAMK1 (unknown origin) in presence of ATP
[19] = target: Myosin light chain kinase 2, skeletal/cardiac muscle (Homo sapiens, UniProt Q9H1R3); assay: Inhibition of MYLK2 (unknown origin) in presence of ATP
[20] = target: Mitogen-activated protein kinase kinase kinase kinase 4 (Homo sapiens, UniProt O95819); assay: Inhibition of MAP4K4 (unknown origin) in presence of ATP
[21] = target: Mitogen-activated protein kinase kinase kinase 9 (Homo sapiens, UniProt P80192); assay: Inhibition of MAP3K9 (unknown origin) in presence of ATP
CYP2D6 = CYP2D6 (Homo sapiens, UniProt P10635); assay: Inhibition of CYP2D6 (unknown origin) at 3 uM; type: ADME
Chain of CYP2D6 (P10635 whole entry): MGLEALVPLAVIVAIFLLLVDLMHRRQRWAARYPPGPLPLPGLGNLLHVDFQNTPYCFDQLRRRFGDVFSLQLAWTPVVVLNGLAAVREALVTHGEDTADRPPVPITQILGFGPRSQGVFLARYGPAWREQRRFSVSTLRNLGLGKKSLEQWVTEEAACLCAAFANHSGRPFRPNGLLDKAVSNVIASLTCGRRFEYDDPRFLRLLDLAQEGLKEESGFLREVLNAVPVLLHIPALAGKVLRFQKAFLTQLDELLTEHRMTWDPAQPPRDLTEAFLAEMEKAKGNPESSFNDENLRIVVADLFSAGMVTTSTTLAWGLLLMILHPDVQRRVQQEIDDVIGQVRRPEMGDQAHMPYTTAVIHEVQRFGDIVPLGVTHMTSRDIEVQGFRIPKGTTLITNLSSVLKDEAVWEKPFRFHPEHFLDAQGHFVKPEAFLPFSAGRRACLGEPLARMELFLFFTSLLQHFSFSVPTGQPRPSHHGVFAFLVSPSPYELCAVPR

Chain of hERG (KCNH2) (Q12809 whole entry): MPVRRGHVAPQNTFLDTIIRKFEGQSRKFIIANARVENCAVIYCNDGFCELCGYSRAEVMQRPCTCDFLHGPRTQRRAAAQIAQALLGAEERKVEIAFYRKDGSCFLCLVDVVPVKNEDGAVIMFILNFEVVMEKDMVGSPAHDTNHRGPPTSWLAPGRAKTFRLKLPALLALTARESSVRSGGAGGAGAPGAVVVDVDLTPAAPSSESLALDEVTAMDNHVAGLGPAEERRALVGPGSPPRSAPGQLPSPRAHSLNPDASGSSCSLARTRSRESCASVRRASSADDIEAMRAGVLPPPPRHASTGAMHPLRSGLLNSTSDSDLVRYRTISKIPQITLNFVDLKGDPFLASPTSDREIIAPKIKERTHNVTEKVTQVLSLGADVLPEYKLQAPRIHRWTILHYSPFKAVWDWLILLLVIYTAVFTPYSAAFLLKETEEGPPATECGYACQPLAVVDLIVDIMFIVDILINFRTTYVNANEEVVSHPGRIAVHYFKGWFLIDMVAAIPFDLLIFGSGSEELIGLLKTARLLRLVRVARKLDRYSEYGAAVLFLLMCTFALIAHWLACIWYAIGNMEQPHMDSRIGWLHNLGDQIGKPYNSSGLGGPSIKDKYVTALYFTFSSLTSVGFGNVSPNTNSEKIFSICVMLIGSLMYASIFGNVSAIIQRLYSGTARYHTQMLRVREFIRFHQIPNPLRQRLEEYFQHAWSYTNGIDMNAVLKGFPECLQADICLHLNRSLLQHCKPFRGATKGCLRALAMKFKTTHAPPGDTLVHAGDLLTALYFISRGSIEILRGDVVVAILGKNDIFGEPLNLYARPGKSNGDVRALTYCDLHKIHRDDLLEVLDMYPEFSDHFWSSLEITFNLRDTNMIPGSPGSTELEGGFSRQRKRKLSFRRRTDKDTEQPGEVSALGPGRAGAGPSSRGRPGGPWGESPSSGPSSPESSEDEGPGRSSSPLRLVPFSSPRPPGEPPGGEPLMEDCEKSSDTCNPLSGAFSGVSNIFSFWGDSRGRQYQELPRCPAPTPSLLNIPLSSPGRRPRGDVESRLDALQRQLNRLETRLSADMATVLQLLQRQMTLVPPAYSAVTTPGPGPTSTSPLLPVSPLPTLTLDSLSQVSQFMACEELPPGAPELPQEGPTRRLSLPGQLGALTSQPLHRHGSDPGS
Chain of Tyrosine-protein kinase Lck (P06239 whole entry): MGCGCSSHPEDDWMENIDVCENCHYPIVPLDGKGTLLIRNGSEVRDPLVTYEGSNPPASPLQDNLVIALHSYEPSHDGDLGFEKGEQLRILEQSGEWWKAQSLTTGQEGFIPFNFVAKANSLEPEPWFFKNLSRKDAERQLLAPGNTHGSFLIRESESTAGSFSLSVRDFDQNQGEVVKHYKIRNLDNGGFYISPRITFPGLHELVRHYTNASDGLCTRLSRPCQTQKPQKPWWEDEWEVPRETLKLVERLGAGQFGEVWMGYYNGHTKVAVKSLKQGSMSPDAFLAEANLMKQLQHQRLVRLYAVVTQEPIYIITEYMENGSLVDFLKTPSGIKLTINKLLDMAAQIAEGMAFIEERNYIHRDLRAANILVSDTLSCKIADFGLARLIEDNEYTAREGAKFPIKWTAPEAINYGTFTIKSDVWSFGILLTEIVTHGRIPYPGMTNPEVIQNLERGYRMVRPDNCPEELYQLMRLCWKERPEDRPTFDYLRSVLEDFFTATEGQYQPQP
Chain of Tyrosine-protein kinase ABL1 (P00519 whole entry): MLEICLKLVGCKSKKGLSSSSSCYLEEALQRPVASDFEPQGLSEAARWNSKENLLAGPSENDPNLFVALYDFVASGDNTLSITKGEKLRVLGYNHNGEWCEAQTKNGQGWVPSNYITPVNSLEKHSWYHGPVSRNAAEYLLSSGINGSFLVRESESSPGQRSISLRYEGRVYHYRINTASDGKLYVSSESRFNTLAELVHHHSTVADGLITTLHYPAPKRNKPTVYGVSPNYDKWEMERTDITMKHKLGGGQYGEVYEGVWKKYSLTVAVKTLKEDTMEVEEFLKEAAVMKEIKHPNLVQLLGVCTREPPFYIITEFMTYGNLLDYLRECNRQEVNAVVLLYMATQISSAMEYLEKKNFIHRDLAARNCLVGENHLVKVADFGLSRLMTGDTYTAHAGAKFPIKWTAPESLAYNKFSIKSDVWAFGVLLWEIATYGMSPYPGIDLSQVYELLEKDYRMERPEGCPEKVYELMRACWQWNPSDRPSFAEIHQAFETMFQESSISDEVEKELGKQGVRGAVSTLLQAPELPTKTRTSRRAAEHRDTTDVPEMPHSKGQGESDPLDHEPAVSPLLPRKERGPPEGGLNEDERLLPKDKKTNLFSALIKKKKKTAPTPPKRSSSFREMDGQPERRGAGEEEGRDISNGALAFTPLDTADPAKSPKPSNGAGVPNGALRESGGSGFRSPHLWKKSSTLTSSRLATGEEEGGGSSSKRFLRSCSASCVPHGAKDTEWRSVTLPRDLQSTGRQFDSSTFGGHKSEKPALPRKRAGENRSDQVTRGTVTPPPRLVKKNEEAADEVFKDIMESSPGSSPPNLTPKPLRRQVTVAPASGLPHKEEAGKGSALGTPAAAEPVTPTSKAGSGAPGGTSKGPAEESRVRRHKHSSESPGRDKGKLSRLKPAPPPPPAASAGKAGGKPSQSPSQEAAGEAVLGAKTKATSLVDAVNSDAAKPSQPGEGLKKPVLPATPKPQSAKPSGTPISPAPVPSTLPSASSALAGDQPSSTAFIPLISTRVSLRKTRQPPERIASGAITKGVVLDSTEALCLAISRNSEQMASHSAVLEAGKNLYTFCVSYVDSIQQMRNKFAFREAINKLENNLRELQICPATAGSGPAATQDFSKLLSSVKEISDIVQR
Chain of Myosin light chain kinase 2, skeletal/cardiac muscle (Q9H1R3 whole entry): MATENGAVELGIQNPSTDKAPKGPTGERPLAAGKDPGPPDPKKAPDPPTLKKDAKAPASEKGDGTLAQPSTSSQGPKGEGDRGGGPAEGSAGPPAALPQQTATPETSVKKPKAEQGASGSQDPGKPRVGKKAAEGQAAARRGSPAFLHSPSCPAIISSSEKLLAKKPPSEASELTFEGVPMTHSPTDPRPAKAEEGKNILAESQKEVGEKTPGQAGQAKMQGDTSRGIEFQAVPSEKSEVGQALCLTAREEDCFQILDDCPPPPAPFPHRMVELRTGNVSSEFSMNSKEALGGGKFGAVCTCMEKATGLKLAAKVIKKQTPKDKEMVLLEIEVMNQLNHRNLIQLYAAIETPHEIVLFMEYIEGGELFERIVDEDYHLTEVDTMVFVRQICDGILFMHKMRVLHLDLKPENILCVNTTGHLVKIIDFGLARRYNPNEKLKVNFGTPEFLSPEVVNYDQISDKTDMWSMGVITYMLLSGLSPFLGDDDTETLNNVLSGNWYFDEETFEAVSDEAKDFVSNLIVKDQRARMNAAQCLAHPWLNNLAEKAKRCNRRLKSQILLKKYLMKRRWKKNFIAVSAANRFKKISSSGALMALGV
Chain of Casein kinase I isoform delta (P48730 whole entry, canonical isoform): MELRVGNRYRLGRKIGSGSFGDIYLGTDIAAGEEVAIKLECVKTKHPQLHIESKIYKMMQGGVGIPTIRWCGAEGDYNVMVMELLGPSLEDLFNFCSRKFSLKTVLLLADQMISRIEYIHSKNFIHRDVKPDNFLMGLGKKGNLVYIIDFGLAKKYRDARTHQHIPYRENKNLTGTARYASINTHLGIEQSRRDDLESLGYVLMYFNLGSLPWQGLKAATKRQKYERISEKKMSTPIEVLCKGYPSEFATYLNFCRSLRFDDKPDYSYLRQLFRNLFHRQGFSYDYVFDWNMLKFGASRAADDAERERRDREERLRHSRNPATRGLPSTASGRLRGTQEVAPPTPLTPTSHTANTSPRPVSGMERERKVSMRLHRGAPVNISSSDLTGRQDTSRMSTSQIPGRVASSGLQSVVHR
Chain of Dual specificity protein kinase CLK1 (P49759 whole entry): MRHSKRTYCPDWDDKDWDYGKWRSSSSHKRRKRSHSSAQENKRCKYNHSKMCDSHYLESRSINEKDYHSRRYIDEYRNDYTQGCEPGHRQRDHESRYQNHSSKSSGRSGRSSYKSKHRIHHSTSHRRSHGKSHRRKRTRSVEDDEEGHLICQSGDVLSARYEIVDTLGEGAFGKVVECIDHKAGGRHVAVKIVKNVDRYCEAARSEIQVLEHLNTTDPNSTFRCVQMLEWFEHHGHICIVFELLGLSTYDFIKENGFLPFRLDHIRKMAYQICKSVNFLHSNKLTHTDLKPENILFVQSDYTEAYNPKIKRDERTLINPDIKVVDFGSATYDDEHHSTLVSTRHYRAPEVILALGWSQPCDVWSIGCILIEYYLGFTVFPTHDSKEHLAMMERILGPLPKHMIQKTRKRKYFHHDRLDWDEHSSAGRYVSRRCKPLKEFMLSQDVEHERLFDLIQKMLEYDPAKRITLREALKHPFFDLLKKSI

Row | SMILES | solubility [1] [µM] | Papp [2] [×10⁻⁶ cm/s] | inhibition at 10 µM (hERG (KCNH2)) [%] | half-life [3] [min] | IC50 [4] [µM] | half-life [5] [min] | IC50 (Platelet) [µM] | further results
1 | CC[C@@H](CO)Nc1nc(Nc2cc(Cl)cc(Cl)c2)ncc1C(=O)NC1CCN(C)CC1 | 3.5 (≈ 1.64 µg/mL) | 2 | 3.4 | 37 | 0.003 |  |  | 
2 | COc1ccccc1CNc1ncc(C(=O)NCCCN2CCCC2=O)c(NC2CCCC2)n1 | 81.6 (≈ 38.1 µg/mL) | 1.5 | 7 |  |  | 16 | 46 | 
3 | O=C(NCCCN1CCCC1=O)c1cnc(NCc2cc(Cl)ccc2Cl)nc1NC1CCCC1 | 3.9 (≈ 1.97 µg/mL) | 0.1 | 23 |  |  | 4 | 28 | 
4 | O=C(NCCCN1CCOC1=O)c1cnc(NCc2cc(Cl)ccc2Cl)nc1NC1CCCC1 | 1.3 (≈ 0.66 µg/mL) |  | 33 |  |  | < 5 | 29 | 
5 | COc1ccccc1CNc1ncc(C(=O)NCCNC(C)=O)c(NC2CCCC2)n1 | 7.8 (≈ 3.33 µg/mL) | 1.9 | 35 | 5 | 0.38 |  |  | 
6 | COc1ccccc1CNc1ncc(C(=O)NCCc2nnn[nH]2)c(NC2CCCC2)n1 | 12 (≈ 5.25 µg/mL) | 21 | 79 | 60 | 1.3 | 22 |  | 
7 | COc1ccccc1CNc1ncc(C(=O)NCCCCN(C)C)c(NC2CCCC2)n1 | 200 (≈ 88.1 µg/mL) |  | 28 | 40 | 0.5 |  | 24 | 
8 | COc1ccccc1CNc1ncc(C(=O)NC2CCN(C)CC2)c(NC2CCCC2)n1 | 80 (≈ 35.1 µg/mL) | 1.2 | 27 | 34 | 0.52 | 56 | 8.8 | IC50 [6]: 15 µM; IC50 [7]: 21.1 µM; bioavailability [8]: 41%; Cmax [9]: 74 ng/mL; AUC [10]: 302 ng·h/mL; clearance [11]: 73 mL/min/kg; Vd [12]: 18 L/kg; half-life [13]: 210 min
9 | CN1CCC(NC(=O)c2cnc(NCc3cc(Cl)ccc3Cl)nc2NC2CCCC2)CC1 | 7.8 (≈ 3.72 µg/mL) | 0.02 | 47 | 14 | 0.27 | 60 | 7.2 | IC50 [6]: 1.36 µM; IC50 (Insulin receptor): 18.6 µM; IC50 [14]: 12.5 µM; IC50 [15]: 2.39 µM; IC50 [16]: 18.6 µM; IC50 [7]: 3.17 µM; bioavailability [8]: 32%; Cmax [9]: 35 ng/mL; AUC [10]: 680 ng·h/mL; clearance [11]: 40 mL/min/kg; Vd [12]: 25 L/kg; half-life [13]: 480 min
10 | CN1CCC(NC(=O)c2cnc(NCc3cc(Cl)ccc3Cl)nc2NC2CCNCC2)CC1 | 200 (≈ 98.5 µg/mL) | < 0.1 | > 50 | 38 | 0.19 | 60 | 8.5 | bioavailability [8]: 0%; Cmax [9]: 25 ng/mL; clearance [11]: 40 mL/min/kg; Vd [12]: 0.4 L/kg; half-life [13]: 12 min
11 | CN1CCC(NC(=O)c2cnc(NCc3cc(Cl)ccc3Cl)nc2NC2CCC(N(C)C)CC2)CC1 (stereo not given) | 89 (≈ 47.6 µg/mL) | 2 | 1.6 | 23 | 0.041 | 57 |  | 
12 | CN1CCC(NC(=O)c2cnc(Nc3cc(Cl)cc(Cl)c3)nc2NC2CCC(N(C)C)CC2)CC1 (stereo not given) | 200 (≈ 104 µg/mL) | 0.3 | 6.7 | 120 | 0.002 | 60 | 1.4 | IC50 [17]: 3.45 µM; IC50 [18]: 19.7 µM; IC50 [7]: 7.61 µM; IC50 [19]: 8.27 µM; IC50 [20]: 0.12 µM; IC50 [21]: 12.2 µM
13 | CN1CCC(NC(=O)c2cnc(Nc3cc(Cl)cc(Cl)c3)nc2NC2CCOCC2)CC1 | 40 (≈ 19.2 µg/mL) | < 0.1 |  | 35 | 0.009 |  |  | 
14 | CN1CCC(NC(=O)c2cnc(Nc3cc(Cl)cc(Cl)c3)nc2N[C@H]2CCCCNC2=O)CC1 | 2.3 (≈ 1.16 µg/mL) | 0.2 | 4 | 41 | 0.006 |  |  | 
15 | CN1CCC(NC(=O)c2cnc(Nc3cc(Cl)cc(Cl)c3)nc2N[C@@H]2COC[C@H]2O)CC1 | 40 (≈ 19.3 µg/mL) | 1.4 | 0.98 | 74 | 0.01 | 60 | 9.6 | IC50 [6]: 3.68 µM; IC50 [17]: 11.2 µM; IC50 [15]: 4.5 µM; bioavailability [8]: 0%; clearance [11]: 55 mL/min/kg; Vd [12]: 2.7 L/kg; half-life [13]: 780 min; IC50 [19]: 24.9 µM; IC50 [20]: 2.48 µM; IC50 [21]: 13.4 µM
16 | Cc1cc(-c2cnc(Nc3cc(Cl)cc(Cl)c3)nc2NC2CCNCC2)on1 | 5.2 (≈ 2.18 µg/mL) | 0.2 | 1.3 | 21 | 0.092 | 3 |  | inhibition at 3 µM (CYP2D6): 81%
17 | O[C@@H]1COC[C@H]1Nc1nc(Nc2cc(Cl)cc(Cl)c2)ncc1-c1cccnc1 | 200 (≈ 83.7 µg/mL) | 1 | 1.5 | 120 | 0.044 | 31 |  | inhibition at 3 µM (CYP2D6): 88%
18 | O[C@@H]1COC[C@H]1Nc1nc(Nc2cc(Cl)cc(Cl)c2)ncc1-c1ccc(F)cc1 | 200 (≈ 87.1 µg/mL) | < 0.01 | 2.7 | 48 | 0.15 | 60 |  | inhibition at 3 µM (CYP2D6): 24%
19 | O[C@@H]1COC[C@H]1Nc1nc(Nc2cc(Cl)cc(Cl)c2)ncc1Br | 5.2 (≈ 2.18 µg/mL) | 0.3 | > 100 | 30 | 0.015 | 31 |  | inhibition at 3 µM (CYP2D6): 1%
20 | COc1ccccc1CNc1ncc(C(=O)NCCCO)c(NC2CCCC2)n1 | 7.8 (≈ 3.12 µg/mL) | 0.9 | 35 | 11 | 0.16 |  | 46 | 
